Here are results for 8 compounds from PubChem BioAssay (NCI).

“And” between values parts separate entries of the source, which are not always exact repeats. Identical values can stand only once.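 Protocol summary: plate cells (96-well), add compound at 5 concentrations, incubate 48 h, interpolate endpoints linearly. GI50: concentration for 50% inhibition of growth. The concentration for full growth arrest is given as TGI.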

Among the test systems are T-47D breast; SN12C renal; HOP-92 NSCLC; SK-MEL-5 melanoma; M14 melanoma; NCI-H226 lung; NCI-H460 lung; OVCAR-3 ovarian; EKVX NSCLC; SF-268 CNS.
What all share (assay): DTP human tumour cell line panel, 48 h

The GI50 is the concentration at which growth is held to half of that of the control. As a reminder, the TGI is the concentration at which net growth stops. The low end stands for more potent growth arrest, the high end for less potent growth arrest.

With `COc1ccc(/C=C/C(=O)c2ccc(SC)cc2)cc1OC`, the GI50 in the test on T-47D breast was 37.2 µM; with SN12C renal, 13 µM; in the test with HOP-92 NSCLC, 13.7 µM; with SK-MEL-5 melanoma it was 14.5 µM; in the test on M14 melanoma it was 3.83 µM; in the test with NCI-H226 lung it was 8.42 µM. Moreover, the GI50 was 70.6 µM in the test on NCI-H460 lung, 2.12 µM with OVCAR-3 ovarian, 19.1 µM with EKVX NSCLC and 22.3 µM in the test with SF-268 CNS. For the same compound, the TGI in the test with T-47D breast is over 100 µM; with SN12C renal, 26.5 µM; in the test with HOP-92 NSCLC, 31.2 µM; in the test with SK-MEL-5 melanoma, 31.7 µM; with M14 melanoma it was 14.2 µM; with NCI-H226 lung, 45.1 µM. Besides, the TGI was over 100 µM in the test on NCI-H460 lung, 6.47 µM in the test on OVCAR-3 ovarian, 35.9 µM with EKVX NSCLC and 63.8 µM with SF-268 CNS.

`CC(C)(C)c1nn(-c2ccccc2)c2c1C(=O)CSC(c1ccccc1Cl)N2` (stereo unspecified): the GI50 was 6.1 µM with T-47D breast; 3.26 µM in the test with SN12C renal; 0.82 µM in the test on HOP-92 NSCLC; 0.966 µM with SK-MEL-5 melanoma; 1.18 µM with M14 melanoma; 1.61 µM with NCI-H226 lung. The GI50 in the test with NCI-H460 lung was 2.8 µM; in the test on OVCAR-3 ovarian, 1.37 µM; in the test with EKVX NSCLC, 3.71 µM; in the test on SF-268 CNS, 2.76 µM. Moreover, the TGI was determined as 30 µM with T-47D breast; 14.7 µM in the test on SN12C renal; 14.4 µM with HOP-92 NSCLC; 11 µM in the test with SK-MEL-5 melanoma; 6.45 µM in the test with M14 melanoma; 5.97 µM in the test with NCI-H226 lung. Also, the TGI in the test on NCI-H460 lung is 12.4 µM; with OVCAR-3 ovarian it was 6.37 µM; in the test on EKVX NSCLC, 26.1 µM; in the test with SF-268 CNS, 18.5 µM.

As for `Cn1c(/C=C(\C#N)c2ccccc2)nc2c(N3CCOCC3)nc(Cl)nc21`, the GI50 was 1.23 µM with T-47D breast; 1.12 µM with SN12C renal; 0.405 µM in the test with HOP-92 NSCLC; 1.64 µM with SK-MEL-5 melanoma; 0.844 µM in the test on M14 melanoma; 1.52 µM with NCI-H226 lung. Also, the GI50 in the test with NCI-H460 lung was 1.77 µM; in the test on OVCAR-3 ovarian it was 0.673 µM; in the test on EKVX NSCLC, 1.42 µM; with SF-268 CNS, 1.55 µM. For the same compound, the TGI in the test on T-47D breast came out at 3.75 µM; with SN12C renal, 2.48 µM; in the test with HOP-92 NSCLC it was 2.06 µM; in the test on SK-MEL-5 melanoma it was 3.01 µM; with M14 melanoma, 2.26 µM; in the test on NCI-H226 lung, 3.4 µM. The TGI in the test with NCI-H460 lung was 3.72 µM; in the test with OVCAR-3 ovarian, 1.88 µM; with EKVX NSCLC, 3.04 µM; with SF-268 CNS, 3.15 µM.

For `CCOC(=O)c1[nH]c(Br)c(-c2ccc(Br)cc2)c1Br`, the GI50 in the test on T-47D breast is 2.66 µM; with SN12C renal, 0.502 µM; in the test with HOP-92 NSCLC it was 1.58 µM; in the test on OVCAR-3 ovarian, 0.37 µM; in the test on EKVX NSCLC it was 0.852 µM; in the test with SF-268 CNS, 0.836 µM. Moreover, the total growth inhibition concentration (TGI) with T-47D breast was 65.7 µM; with SN12C renal, 4.75 µM; with HOP-92 NSCLC it was 7.86 µM and 7.98 µM; in the test on SK-MEL-5 melanoma, 19.1 µM; in the test on M14 melanoma it was 17.9 µM; in the test with NCI-H226 lung, 6.88 µM. The TGI is over 100 µM with NCI-H460 lung; 0.759 µM and 1.61 µM in the test with OVCAR-3 ovarian; 17.3 µM in the test with EKVX NSCLC; 34.8 µM in the test on SF-268 CNS.

As to `Cc1ccc(-n2c3c(c4c(CN(C)C)c(O)ccc42)CCc2ccccc2C3=O)cc1`, the GI50 in the test on T-47D breast was over 100 µM; in the test on SN12C renal it was 16.3 µM; with HOP-92 NSCLC, 17.5 µM; in the test with SK-MEL-5 melanoma it was 14.9 µM; with M14 melanoma it was 16.1 µM; in the test on NCI-H226 lung, 18.1 µM. Besides, the GI50 in the test with NCI-H460 lung was 18.3 µM; in the test on OVCAR-3 ovarian, 21.4 µM; in the test on EKVX NSCLC it was 38 µM; with SF-268 CNS it was 19.8 µM. The TGI is over 100 µM with T-47D breast; 30.9 µM in the test on SN12C renal; 40 µM in the test on HOP-92 NSCLC; 28.9 µM in the test on SK-MEL-5 melanoma; 30.2 µM in the test on M14 melanoma; 37 µM in the test with NCI-H226 lung. Moreover, the TGI was 41.9 µM in the test on NCI-H460 lung, 44.5 µM with OVCAR-3 ovarian, over 100 µM in the test on EKVX NSCLC and 50.5 µM with SF-268 CNS.

With `Nc1ncnc2c1nc(Cl)n2C1OC2COP(=O)(O)OC2C1O` (stereo unspecified), the TGI was over 300 µM with T-47D breast; over 300 µM with SN12C renal; 229 µM and > 92.9 µM in the test on HOP-92 NSCLC; over 300 µM in the test on SK-MEL-5 melanoma; over 300 µM with M14 melanoma; over 155 µM in the test on NCI-H226 lung. Moreover, the TGI with NCI-H460 lung, in the test on OVCAR-3 ovarian, in the test on EKVX NSCLC and in the test with SF-268 CNS was over 300 µM throughout.

For the compound `c1ccc2[nH]c(-c3ccc(NN=Nc4ccncc4)cc3)nc2c1`, the GI50 in the test on T-47D breast is 93 µM; in the test with SN12C renal, over 100 µM; with HOP-92 NSCLC it was 91.5 µM; in the test with SK-MEL-5 melanoma it was 24.1 µM; in the test with M14 melanoma, over 100 µM; in the test on NCI-H226 lung, over 100 µM. Moreover, the GI50 is 2.46 µM in the test on NCI-H460 lung, 15.1 µM in the test with OVCAR-3 ovarian, 11.2 µM in the test on EKVX NSCLC and 4.81 µM with SF-268 CNS. The TGI in the test with T-47D breast, in the test with SN12C renal, in the test with HOP-92 NSCLC, in the test with SK-MEL-5 melanoma, in the test on M14 melanoma and with NCI-H226 lung was over 100 µM each time. Besides, the TGI in the test on NCI-H460 lung is over 100 µM; with OVCAR-3 ovarian, over 100 µM; in the test on EKVX NSCLC, 54.1 µM; in the test with SF-268 CNS, 74.4 µM.

Take `O=C1CCCCCCCC/C=C\CC(c2ccco2)O1` (stereo unspecified): the GI50 in the test with T-47D breast was 13.1 µM; in the test on SN12C renal it was 22.2 µM; in the test with HOP-92 NSCLC, 17 µM; with SK-MEL-5 melanoma, 18.9 µM; with M14 melanoma, 24.6 µM; in the test on NCI-H226 lung, 21 µM. Besides, the GI50 in the test on NCI-H460 lung is 76.5 µM; with OVCAR-3 ovarian it was 32.2 µM; with EKVX NSCLC it was 26.7 µM; with SF-268 CNS it was 30.8 µM. The TGI came out at 57 µM with T-47D breast; 69.9 µM in the test on SN12C renal; 94.9 µM with HOP-92 NSCLC; 36.9 µM in the test with SK-MEL-5 melanoma; 70.5 µM in the test on M14 melanoma; 64.1 µM in the test on NCI-H226 lung. The TGI is over 100 µM in the test on NCI-H460 lung, over 100 µM with OVCAR-3 ovarian, 75.7 µM with EKVX NSCLC and over 100 µM in the test with SF-268 CNS.
